Source: patent US10280241B2, “Tackifier compounds and methods of using the same” (Iowa State University Research Foundation, Inc., priority 2012, dated 2019)

Experiments:
[1] = Water solubility of tackifiers; type: physicochemical
Text: Altering the identity of the acid anhydride altered tackifier properties.

[2] = Glass transition temperature by DSC; type: physicochemical; conditions: measured by DSC
Description: Tack was measured by modifications to the […] standard. On an Instron® load frame, the tackifier to be tested was applied to a glass slide at a thickness of 0.1 mm. The slide was then clamped to a flat surface and, perpendicularly, a type 304 stainless steel probe measuring 5 mm in diameter, with a 90° polished tip was place above the slide. The probe was then lowered at a rate of 0.5 mm sec^−1 and contacted the surface at an average force of 1.5 N. The probe was then held on the surface for 1.0 sec and then raised at a rate of 0.5 mm sec^−1. Tack was measured as the maximum force required to remove the probe from the surface of the tackifier. Tg was measured by DSC.

| Water solubility (in words) [1] | Tg [2] | SMILES |
| --- | --- | --- |
| – | −2 °C | O=C(O)CCC(=O)O[C@@H]1CO[C@H]2[C@@H]1OC[C@H]2OC(=O)CCC(=O)O [5a] |
| – | −26 °C | O=C(O)CCCC(=O)O[C@@H]1CO[C@H]2[C@@H]1OC[C@H]2OC(=O)CCCC(=O)O [5b] |

Further lines, the compound ahead of its results:

| SMILES | Water solubility (in words) [1] | Tg [2] |
| --- | --- | --- |
| O=C(O)CCC(=O)OC1COC2C(OC(=O)CCC(=O)O)COC12 (stereo not shown) [3a] | substantially water-soluble | −2 °C |
| O=C(O)CCCC(=O)O[C@H]1CO[C@H]2[C@@H]1OC[C@H]2OC(=O)CCCC(=O)O [3b] | substantially water-insoluble | −24 °C |
| O=C(O)C=CC(=O)O[C@H]1CO[C@H]2[C@@H]1OC[C@H]2OC(=O)C=CC(=O)O [3c] | – | 16 °C |
